Assay results taken from publication PMC11360041 (ACS Omega, 2024).
“Also recorded” adds a separate entry of the source.

What was measured:
TMV [1] = assay: Curative effect of compounds against TMV in vivo; conditions: Tobacco mosaic virus, read-out: relative inhibition rate (%) curative effect
TMV [2] = assay: Inactivation effect of compounds against TMV in vivo; set-up: species or system tobacco mosaic virus; conditions: for inhibition at 100 µg/mL / inhibition at 500 µg/mL: Tobacco mosaic virus, read-out: relative inhibition rate (%) inactive effect
TMV particles = assay: Morphological observation of TMV particles via transmission electron microscopy; set-up: species or system tobacco mosaic virus; conditions: 500 mg/L
TMV [3] = assay: Protective effect of compounds against TMV in vivo; set-up: species or system tobacco mosaic virus; conditions: for inhibition at 100 µg/mL / inhibition at 500 µg/mL: Tobacco mosaic virus, read-out: relative inhibition rate (%) protective effect
[4] = molecular target: T1, TMV coat protein (TMV-CP) (Tobacco mosaic virus, UniProt P69687); assay: Microscale thermophoresis binding to TMV-CP
T1 sequence (P69687 2-159 limits assumed): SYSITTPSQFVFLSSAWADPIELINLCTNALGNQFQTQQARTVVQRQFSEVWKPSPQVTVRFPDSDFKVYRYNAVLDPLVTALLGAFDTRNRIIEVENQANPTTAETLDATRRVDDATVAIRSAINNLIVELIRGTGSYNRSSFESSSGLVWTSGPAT

TMV [5] = conditions: cited from earlier work
Physalospora piricola = assay type: cell-based; conditions: read-out: Inhibition rate, Pp, 50 mg/L, Physalospora piricola
Bipolaris maydis = assay type: cell-based; conditions: read-out: Inhibition rate, Bm
watermelon anthracnose = assay: organism not typed; assay type: cell-based; conditions: read-out: Inhibition rate, Wa
[6] = system: Fusarium oxysporium f. sp. cucumeris; assay type: cell-based; conditions: read-out: Inhibition rate, Fc
Fusarium graminearum = assay: microbe, parasite or virus in culture; assay type: cell-based; conditions: read-out: Inhibition rate, Fg
Alternaria solani = assay type: cell-based; conditions: read-out: Inhibition rate, As
Botrytis cinerea = assay type: cell-based; conditions: read-out: Inhibition rate, Bc
Phytophthora capsici = assay type: cell-based; conditions: read-out: Inhibition rate, Pc
Sclerotinia sclerotiorum = assay type: cell-based; conditions: read-out: Inhibition rate, Ss
Rhizoctonia solani = assay type: cell-based; conditions: read-out: Inhibition rate, Rs
TMV [7] = conditions: 500 mg/L; cited from earlier work
TMV [8] = conditions: 500 mg/L; cited from earlier work; remark: listed apart in the source
TMV [9] = conditions: 500 mg/L; cited from earlier work; remark: listed apart in the source
[10] = system: 14 kinds of phytopathogenic fungi; assay: Fungicidal activity against 14 kinds of phytopathogenic fungi; assay type: cell-based; conditions: read-out: inhibitory rate against three fungi

| SMILES | inhibition at 100 µg/mL (TMV [1]) [%] | inhibition at 500 µg/mL (TMV [1]) [%] | inhibition at 100 µg/mL (TMV [2]) [%] | inhibition at 500 µg/mL (TMV [2]) [%] | inhibition at 100 µg/mL (TMV [3]) [%] | inhibition at 500 µg/mL (TMV [3]) [%] | inhibition at 50 µg/mL (Physalospora piricola) [%] | inhibition at 50 µg/mL (Bipolaris maydis) [%] | inhibition at 50 µg/mL (watermelon anthracnose) [%] | inhibition at 50 µg/mL [6] [%] | inhibition at 50 µg/mL (Fusarium graminearum) [%] | inhibition at 50 µg/mL (Alternaria solani) [%] | inhibition at 50 µg/mL (Botrytis cinerea) [%] | inhibition at 50 µg/mL (Phytophthora capsici) [%] | inhibition at 50 µg/mL (Sclerotinia sclerotiorum) [%] | inhibition at 50 µg/mL (Rhizoctonia solani) [%] | also measured |
| --- | --- | --- | --- | --- | --- | --- | --- | --- | --- | --- | --- | --- | --- | --- | --- | --- | --- |
| NC(=O)c1ncn([C@@H]2O[C@H](CO)[C@@H](O)[C@H]2O)n1 [Ribavirin, reference compound] | 10.1 ± 1.6 | 38 ± 2.2 | 12.1 ± 1.4 | 39.2 ± 3.5 | 13.4 ± 0.7 | 40.8 ± 1 | – | – | – | – | – | – | – | – | – | – | effect on the morphology of TMV particles (TEM) (TMV particles): fragmented into shorter rods; Kd [4]: 512 ± 257 nM |
| CNCC(=O)N[C@@H](CO)C(=O)N[C@H]1[C@H](O)[C@@H](O)[C@H](n2ccc(N)nc2=O)O[C@@H]1C(N)=O [Ningnanmycin] | – | – | – | – | – | – | – | – | – | – | – | – | – | – | – | – | actual inhibitory effect in the field (TMV [5]): lower than 60% |
| O=C(Cn1ccc(=O)c2ccccc21)NN=Cc1ccc(-c2ccccc2)cc1 [Compound 11] | 10.1 ± 2 | 43 ± 2.7 | 19.8 ± 2.8 | 49.6 ± 3.9 | 20.9 ± 0.4 | 45.2 ± 1.1 | 17.6 ± 1.6 | 11.1 ± 0.9 | 14 ± 1.7 | 22.4 ± 1.3 | 9.5 ± 0.7 | 38.5 ± 2.4 | 25 ± 1.8 | 26.2 ± 1.5 | 22 ± 1.4 | 35.7 ± 2.2 | – |
| Cn1ccc(=O)c2ccccc21 [echinopsine] | – | – | – | – | – | – | – | – | – | – | – | – | – | – | – | – | inactive activity against TMV (TMV [7]): 49.5%; curative activity against TMV (TMV [8]): 46.1%; protective activity against TMV (TMV [9]): 42.6% |
| O=C(Cn1ccc(=O)c2ccccc21)NN=Cc1cc2ccccc2[nH]1 [Compound 23] | 6.6 ± 1.9 | 32.5 ± 4.1 | 0 | 40.1 ± 2.7 | 0 | 43.9 ± 1 | 51.5 ± 2.3 | 8.9 ± 1.1 | 11.6 ± 0.9 | 6.1 ± 1.3 | 14.3 ± 1.1 | 15.4 ± 1.5 | 10.4 ± 1.2 | 31 ± 2.1 | 12.2 ± 0.9 | 3.6 ± 0.5 | relative inhibition rate (%) inactive effect (TMV [2]; 100 mg/L, in vivo, against TMV): did not exhibit any; relative inhibition rate (%) protective effect (TMV [3]; 100 mg/L, in vivo, against TMV): did not exhibit any |
| O=C(Cn1ccc(=O)c2ccccc21)NN=Cc1ccc(C(F)(F)F)cc1 [Compound 17] | 17.7 ± 1.5 | 49.2 ± 3 | 7.5 ± 0.2 | 47.1 ± 1.9 | 19 ± 1.8 | 44.1 ± 1.4 | 47.1 ± 1.4 | 8.9 ± 0.9 | 11.6 ± 1.2 | 26.5 ± 1.7 | 19 ± 1.2 | 15.4 ± 1.3 | 18.8 ± 1.5 | 9.5 ± 0.8 | 22 ± 1.3 | 3.6 ± 0.7 | – |
| COc1cccc(C=NNC(=O)Cn2ccc(=O)c3ccccc32)c1 [Compound 4] | 14 ± 0.5 | 47.6 ± 2.5 | 16.8 ± 0.3 | 51.2 ± 1.9 | 15.8 ± 2.5 | 46.3 ± 1.8 | 38.2 ± 1.7 | 33.3 ± 1.4 | 39.5 ± 1.1 | 36.7 ± 1.4 | 38.1 ± 1.9 | 61.5 ± 3.2 | 14.6 ± 0.7 | 38.1 ± 1.7 | 36.6 ± 1.5 | 57.1 ± 2.3 | effect on the morphology of TMV particles (TEM) (TMV particles): hindered the self-assembly and growth of TMV; also recorded: fragmented into shorter rods; Kd [4]: 142 ± 60 nM; inhibition at 50 µg/mL [10]: > 40% |
